Test results taken from patent US6808699B2, “Methods for imaging pulmonary and cardiac vasculature and evaluating blood flow using dissolved polarized 129Xe” (Medi-Physics, Inc., priority 1998, dated 2004).
Where two headings read alike, the source gives them in different places.

Key:
[1] = longitudinal relaxation time T1 of polarized 129Xe; assay type: physicochemical, human; settings: gas in the lung, with decay due to blood uptake included
Excerpt: As will be appreciated by those of skill in the art, imaging with polarized dissolved gas depends on transport of sufficient surviving polarization or magnetization to tissues of interest. In a preferred embodiment, the tissues of interest include the pulmonary region, and particularly the pulmonary vasculature. As will also be appreciated by those of skill in the art, polarization decays corresponding to the longitudinal relaxation time, T1. Dissolved phase ^129Xe can have a relatively short relaxation time (T1) generally thought to be due to the presence of oxygen and due to paramagnetic deoxyhemoglobin in the blood. For example, T1 for substantially fully oxygenated human cell membranes is estimated at about 15 seconds. Alternatively, T1 in blood has also been estimated as about 5 seconds. See A. Bifone et al., 93 Proc. Natl. Acad. Sci., p. 12932 (1996). Taking the estimated upper limit of about a five second transit time to the heart as discussed above, the xenon polarization can be attenuated to about ⅓ of its starting value at the heart. This relationship supports that TR should be shortened to less than about 2.5 seconds, and preferably less than about 1-2 seconds. Correspondingly, with about a 2.5 second transit time, the magnetization can be calculated as noted above to be about 0.61 of its starting magnetization. […]

[2] = cited from earlier work; for longitudinal relaxation time T1: dissolved phase, estimated

For `[129Xe]` [^129Xe, Xenon-129], the “effective T1” value [1] is given as “about 33 seconds”, the “longitudinal relaxation time T1” value ([2]; in blood, Bifone et al. 1996) is given as “about 5 seconds” and the “longitudinal relaxation time T1” value ([2]; substantially fully oxygenated human cell membranes) is given as “about 15 seconds”. For the same compound, the “gas phase T1” value ([2]; gas phase in the lungs, estimated from generally known oxygen related effects) was “about 35 seconds”.
